Laboratory results published in ChEMBL document CHEMBL4321787, “Overview of Recent Strategic Advances in Medicinal Chemistry” (J Med Chem, 2019).
Each block holds one compound with its values, some of them ahead of it.

Legend:
[1] = test system: Human immunodeficiency virus 1; assay: Antiviral activity against HIV1 infected in human MT2 cells incubated for 5 days; format: functional, organism-based; settings: Human immunodeficiency virus 1, MT2, 120 h
[2] = Cytotoxicity against human MT2 cells incubated for 5 days; format: cell-based
[3] = test system: Human immunodeficiency virus 1; assay: Antiviral activity against HIV1 3B infected in human MT2 cells incubated for 5 days by MTT assay; format: functional, organism-based; settings: Human immunodeficiency virus 1, 3B, MT2, 120 h
[4] = target: T1, Envelope glycoprotein gp160 (Human immunodeficiency virus 1, UniProt Q6QLK5); assay: Inhibition of HIV1 JRFL gp120 assessed as reduction in CD4/gp 120 complex formation incubated for 1 hr by ELISA
Histone deacetylase = assay: Inhibition of HDAC (unknown origin) using Fluoro-Substrate Peptide as substrate by fluorescence assay; format: protein assay, Homo sapiens
[5] = target: T1, Envelope glycoprotein gp160; assay: Inhibition of HIV1 gp120 assessed as increase in anti-DNP binding to immobilized HIV-1 gp120 incubated for 1 hr by ELISA
[6] = Inhibition of Acinetobacter baumannii N-terminal ADC-7 cephalosporinase expressed in Escherichia coli BL21(DE3) incubated for 5 mins by UV-vis spectrophotometric method
Histone deacetylase 3 = Histone deacetylase 3 (Homo sapiens, UniProt O15379); assay: Inhibition of HDAC3 (unknown origin)
Protease = Protease (Human immunodeficiency virus 1, UniProt Q9YQ12); assay: Inhibition of HIV1 protease using RE(Edans)SGIFLETSK(Dabcyl)R as substrate by fluorescence method
[7] = Inhibition of HIV1 reverse transcriptase p66/p51 K103N/Y181C mutant infected in human MT2 cells assessed as reduction in viral infection incubated for 5 days

T1 sequence (Q6QLK5 whole entry): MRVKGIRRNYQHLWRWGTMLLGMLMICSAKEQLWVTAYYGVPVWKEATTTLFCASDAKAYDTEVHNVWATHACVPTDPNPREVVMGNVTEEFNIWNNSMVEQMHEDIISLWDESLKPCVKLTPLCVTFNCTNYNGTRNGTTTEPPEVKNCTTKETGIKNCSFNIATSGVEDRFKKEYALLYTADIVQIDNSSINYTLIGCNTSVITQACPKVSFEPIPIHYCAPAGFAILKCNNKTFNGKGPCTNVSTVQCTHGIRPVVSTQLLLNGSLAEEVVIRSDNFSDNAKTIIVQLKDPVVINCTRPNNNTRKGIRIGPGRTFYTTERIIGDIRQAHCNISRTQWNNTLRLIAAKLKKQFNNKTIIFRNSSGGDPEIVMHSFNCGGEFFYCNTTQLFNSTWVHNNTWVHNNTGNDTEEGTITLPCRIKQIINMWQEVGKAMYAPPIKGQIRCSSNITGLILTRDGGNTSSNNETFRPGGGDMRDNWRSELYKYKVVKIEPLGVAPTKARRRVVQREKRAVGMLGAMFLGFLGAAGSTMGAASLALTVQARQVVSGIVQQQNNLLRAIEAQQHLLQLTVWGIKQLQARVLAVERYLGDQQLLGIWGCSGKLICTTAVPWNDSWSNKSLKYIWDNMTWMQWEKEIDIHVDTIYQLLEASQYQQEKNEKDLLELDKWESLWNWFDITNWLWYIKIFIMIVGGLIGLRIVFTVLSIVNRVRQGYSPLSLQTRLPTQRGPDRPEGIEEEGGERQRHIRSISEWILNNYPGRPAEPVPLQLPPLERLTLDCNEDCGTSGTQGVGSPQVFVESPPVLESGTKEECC
Chain of Protease (Q9YQ12 whole entry): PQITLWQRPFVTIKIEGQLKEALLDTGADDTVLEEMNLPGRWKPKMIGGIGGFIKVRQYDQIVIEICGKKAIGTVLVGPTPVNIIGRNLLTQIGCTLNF
Chain of Histone deacetylase 3 (O15379 whole entry): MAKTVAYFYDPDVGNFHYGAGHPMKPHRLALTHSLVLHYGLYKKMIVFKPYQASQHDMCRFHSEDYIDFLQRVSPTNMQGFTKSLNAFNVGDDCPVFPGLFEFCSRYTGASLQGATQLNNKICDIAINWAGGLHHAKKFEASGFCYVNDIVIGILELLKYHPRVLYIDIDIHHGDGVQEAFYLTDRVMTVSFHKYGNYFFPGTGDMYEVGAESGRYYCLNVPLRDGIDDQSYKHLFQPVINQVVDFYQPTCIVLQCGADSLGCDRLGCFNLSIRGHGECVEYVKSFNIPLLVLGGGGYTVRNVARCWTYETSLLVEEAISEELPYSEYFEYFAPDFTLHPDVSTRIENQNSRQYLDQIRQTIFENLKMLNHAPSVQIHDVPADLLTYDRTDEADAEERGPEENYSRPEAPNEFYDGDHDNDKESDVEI

Compound: Cc1c(Oc2ccccc2OCCn2ccc(=O)[nH]c2=O)cc(N(C)C(=O)CCl)c2ccc(C#N)cc12
EC50 [1]: 580 nM
CC50 at 120 h [2]: 32000 nM

Compound: Nc1ccccc1NC(=O)c1ccc(-c2cn(CCc3ccsc3)nn2)cc1
IC50 (Histone deacetylase): > 100000 nM

Compound: COc1ccc(-c2ccc(CNC(=O)COCCOCCOCCOCCn3cc(COCCOCCOCCOCCNc4ccc([N+](=O)[O-])cc4[N+](=O)[O-])nn3)o2)c2[nH]cc(C(=O)C(=O)N3CCN(C(=O)c4ccccc4)CC3)c12
IC50 [3]: 13 nM
IC50 [4]: 330 nM
EC50 [5]: 1120 nM

Compound: O=C(Cc1cccs1)N[C@@H](Cn1cc(C(=O)O)nn1)B(O)O
Ki [6]: 44 nM

Compound: Cc1c(Oc2ccccc2OCCn2ccc(=O)[nH]c2=O)cc(N(C)C(=O)CF)c2ccc(C#N)cc12
EC50 [1]: 890 nM
CC50 at 120 h [2]: > 100000 nM

Compound: C[C@@H]1CN(C(=O)c2ccccc2)CCN1C(=O)C(=O)c1c[nH]c2nccc(OCCOCCOCCOCCOCCOCCn3cc(COCCOCCOCCOCCNc4ccc([N+](=O)[O-])cc4[N+](=O)[O-])nn3)c12
IC50 [4]: 19900 nM
EC50 [5]: 37900 nM

Compound: Cc1c(Oc2ccccc2OCCn2ccc(=O)[nH]c2=O)cc(Cl)c2ccc(C#N)cc12
EC50 [1]: 6.2 nM
CC50 at 120 h [2]: > 100000 nM
EC50 [7]: 280 nM

More lines, main results first:

IC50 [4]: 130 nM
Compound: COc1ccc(-c2ccco2)c2[nH]cc(C(=O)C(=O)N3CCN(C(=O)c4ccccc4)CC3)c12
IC50 [3]: 0.064 nM

EC50 [1]: 1600 nM
Compound: C=CC(=O)Nc1cc(Oc2ccccc2OCCn2ccc(=O)[nH]c2=O)c(C)c2cc(C#N)ccc12
CC50 at 120 h [2]: 11000 nM

IC50 [4]: 8700 nM
Compound: COc1ccnc2[nH]cc(C(=O)C(=O)N3CCN(C(=O)c4ccccc4)C[C@H]3C)c12

IC50 (Histone deacetylase 3): 68000 nM
Compound: O=C(NO)c1cccc(-c2cn(CSc3ccccc3)nn2)c1

IC50 (Histone deacetylase): > 100000 nM
Compound: Nc1ccccc1NC(=O)c1ccc(-c2cn(CCc3cccc([N+](=O)[O-])c3)nn2)s1

Ki (Protease): 0.0005 nM
Compound: CC(C)CN(C[C@@H](O)[C@H](Cc1ccccc1)NC(=O)O[C@H]1CO[C@H]2OCC[C@H]21)S(=O)(=O)c1ccc(B(O)O)cc1

EC50 [1]: 560 nM
Compound: C=CC(=O)N(C)c1cc(Oc2ccccc2OCCn2ccc(=O)[nH]c2=O)c(C)c2cc(C#N)ccc12
CC50 at 120 h [2]: 32000 nM
